Holding throughout (type): functional
The test system of one test is Plutella xylostella. Nature of the test: Insecticidal activity against Plutella xylostella (diamondback moth) […] larvae infested on compound pre-treated fresh cabbage leaves assessed as larvicidal activity measured 3 days post treatment.
Test [1] has as its system Mythimna separata. The test can be described thus: Insecticidal activity against Mythimna separata (Oriental armyworm) fourth-instar larvae infested compound pre-treated corn leaves assessed as larvicidal activity at 0.25 mg/L measured 4 days post treatment.
Test [2] has as its system Mythimna separata. The test can be described thus: Insecticidal activity against Mythimna separata (Oriental armyworm) fourth-instar larvae infested compound pre-treated corn leaves assessed as larvicidal activity at 0.5 mg/L measured 4 days post treatment.
Test [3] concerns Culex pipiens pallens. Nature of the test: Insecticidal activity against Culex pipiens pallens (mosquito) fourth-instar larvae assessed as larvicidal activity at 0.005 mg/L measured 8 days post treatment. As to conditions: 192 h.
Test [4] has as its system Culex pipiens pallens. Nature of the test: Insecticidal activity against Culex pipiens pallens (mosquito) fourth-instar larvae assessed as larvicidal activity at 0.0005 mg/L measured 8 days post treatment. The following applies: 192 h.
Test [5] has as its system Culex pipiens pallens. Nature of the test: Insecticidal activity against Culex pipiens pallens (mosquito) fourth-instar larvae assessed as larvicidal activity at 0.001 mg/L measured 8 days post treatment. The following applies: 192 h.
The subject of test [6] is Mythimna separata. Nature of the test: Insecticidal activity against Mythimna separata (Oriental armyworm) fourth-instar larvae infested compound pre-treated corn leaves assessed as larvicidal activity at 1 mg/L measured 4 days post treatment.

Broadly, the LC50 is the concentration lethal to half of the exposed cells or organisms. As a reminder, the mortality is the percentage killed.

In brackets after ≈: the same amount, converted by molar mass.

As to `CC(C)(C)O/N=C/c1ccc(NC(=O)NC(=O)c2c(F)cccc2F)cc1`, the median lethal concentration (LC50) with Plutella xylostella amounted to 30.8 µg/mL (≈ 82 µM). In addition, in the test with Mythimna separata [1], the mortality at 0.25 µg/mL amounted to 0%. The mortality at 0.5 µg/mL with Mythimna separata [2] was 85%. The mortality at 0.005 µg/mL in the test on Culex pipiens pallens [3] was found to be 100%. Moreover, the mortality at 0.0005 µg/mL with Culex pipiens pallens [4] was found to be 20%. In addition, in the test with Culex pipiens pallens [5], the mortality at 0.001 µg/mL was 70%. Moreover, the mortality at 1 µg/mL in the test on Mythimna separata [6] was 100%.

The record behind these values is ChEMBL document CHEMBL3046766, “Design, synthesis, and insecticidal evaluation of new benzoylureas containing isoxazoline and isoxazole group” (2011).
